In paper PMC3049593 (British Journal of Cancer, 2011):

Legend:
[1] = tested on: LL/2 tumours and lung metastases; assay: syngeneic Lewis Lung Carcinoma (LL/2) tumour growth and spontaneous metastasis model; format: in vivo, mice
Method: (§1) In the orthotopic Hep3b2.1-7 human liver cancer model, treatment of mice (n=10) began 14 days after inoculation of 2.5 × 10^6 cells. […] To initiate tumour xenografts, MDA-MB-231, PC3, Cal27 and HepG2 cells were injected s.c. into nude mice (n=8) at 4, 5, 2 and 2 × 10^7 cells ml^−1, respectively. […] In the B16F0 lung metastasis model, 2 × 10^5 cells were injected via the tail vein of C57Bl6 mice (n=8). […] Surface lung macrometastases were counted for each group (n=9) upon study termination. In the intrasplenic HT-29 xenograft model, 1 × 10^6 cells in 100 μl were injected into the spleen. […] Solid tumours were measured in two dimensions (length and width) and the tumour volume (cm^3) was calculated using the equation: V=length × width^2 × π/6. The anti-tumour activity was expressed as percent tumour growth inhibition (%TGI). Further details are available in Supplementary Methods. […]
efficacy/PK study) using either a once or twice weekly dosing schedule (see figure legends for dose schedules in each study) for up to three weeks. […]
In the LL/2 mouse model, treatment of mice commenced on the day of inoculation (Day 0). Mice inoculated subcutaneously were treated with either Vehicle Control […]
once weekly or Sorafenib (60mg/kg, once daily, p.o.). The treatments were continued for three weeks. The lungs were excised from all mice at the time of culling for metastasis […]
count determination. […]
In relevant models, solid tumours were measured in two dimensions (length and width) and the tumour volume (mm3) calculated using the equation V = length × width2 × π/6.The anti-tumour activity was assessed by the comparison of the mean tumour volume of the treated groups to the mean tumour volume of the control group and expressed as the percent Tumour Growth Inhibition (TGI) using the equation:
%TGI = (1-((VendPG545 - VstartPG545) / (VendControl - VstartControl)))*100 VendPG545 = Ending Tumour Volume of PG545-treated animal
VstartPG545 = Starting Tumour Volume of PG545-treated animal
VendControl = Ending Tumour Volume of Control animal
VstartControl = Starting Tumour Volume of Control animal […]
After collection, 0.2 mL of […]
whole blood was added to a glass scintillation vial to which 1 mL Solvable was added.
Samples were incubated for one hour at 55-60°C. 0.1 mL of 0.1 M EDTA-di-sodium salt solution and 0.3 mL to 0.5 mL of 30% hydrogen peroxide in 0.1 mL aliquots were added to the sample. Samples were gently agitated between additions to allow reaction foaming to subside. Samples were incubated for 30 minutes at room temperature. Vials were capped tightly and incubated again at 55 – 60 °C fo r 1 hour. Samples were cooled to room temperature and 15 mL of ULTIMA Gold added.
For tumour samples, 100 mg of tissue was placed in a 20 mL glass scintillation vial and 2 mL of Solvable added. The samples were incubated at 50 - 60 °C for 1 hour with occasional swirling. Samples were cooled to room temperature and for tumours, 0.3 mL of 30% hydrogen peroxide in three aliquots of 0.1 mL were added. The samples were again incubated at 50 - 60 °C for 1 hour with occasional swirling. Tumours samples were […]

HepG2 cells = assay: in vitro cytotoxicity (LC50); format: cell-based; details: read-out: LC50 (concentration lethal to 50% of cells)
[2] = tested on: angiogenesis (endothelial cells, rat aortic ring); design: method as in Dredge et al, 2010; details: endothelial cell assays in vitro and ex vivo rat aortic ring assay; ref Dredge et al, 2010; cited from earlier work
MDA-MB-231 tumours = assay: MDA-MB-231 breast xenograft model; format: in vivo, nude mice
Method: as §1
antibody. […]
staining. For quantification, three independent visual fields (20x magnification) were chosen and positive stained spots or vessels with identifiable lumen were counted.
Angiogenesis inhibition and induction were calculated using the equations: […]
regimen both before and after tumour cell inoculation (days -6, -3, 0, +3, +6) or only after tumour cell inoculation (days 0, +3, +6). B16 cell (2x105) were inoculated via tail vein injections and mice were culled and assessed for lung metastases on day 12. […]

coagulation = tested on: coagulation; design: method as in Dredge et al, 2010; details: compared with PI-88 or earlier PG500 series compounds; ref Dredge et al, 2010; cited from earlier work

For `CC(C)CCC[C@@H](C)[C@H]1CCC2C3CCC4C[C@@H](O[C@@H]5O[C@H](COS(=O)(=O)[O-])[C@@H](O[C@H]6O[C@H](COS(=O)(=O)[O-])[C@@H](O[C@H]7O[C@H](COS(=O)(=O)[O-])[C@@H](O[C@H]8O[C@H](COS(=O)(=O)[O-])[C@@H](OS(=O)(=O)[O-])[C@H](OS(=O)(=O)[O-])[C@H]8OS(=O)(=O)[O-])[C@H](OS(=O)(=O)[O-])[C@H]7OS(=O)(=O)[O-])[C@H](OS(=O)(=O)[O-])[C@H]6OS(=O)(=O)[O-])[C@H](OS(=O)(=O)[O-])[C@H]5OS(=O)(=O)[O-])CC[C@]4(C)C3CC[C@@]21C.[Na+].[Na+].[Na+].[Na+].[Na+].[Na+].[Na+].[Na+].[Na+].[Na+].[Na+].[Na+].[Na+]` (stereo partly drawn) [PG545], the “TGI (primary tumour)” value ([1]; 20 mg kg^−1 once-weekly) was 46%, the “TGI / inhibition (lung metastases)” value ([1]; 20 mg kg^−1 once-weekly) was 96% and the “TGI (lung metastases)” value ([1]; 20 mg kg^−1 single dose) was 67%. The “TGI (primary tumour)” value ([1]; 20 mg kg^−1 single dose) was 15%, the “TGI (lung metastases)” value ([1]; 40 mg kg^−1 once-weekly) was 67% and the “TGI (primary tumour)” value ([1]; 40 mg kg^−1 once-weekly) was 57%. The “TGI (primary tumour)” value ([1]; 40 mg kg^−1 single dose) was 33%, the CC50 (HepG2 cells) was > 100 µM and the angiogenesis inhibitor potency [2] was ≤ 1 µM. The TGI (MDA-MB-231 tumours; 30 mg kg^−1 once-weekly s.c.) was 69%, the TGI (MDA-MB-231 tumours; 30 mg kg^−1 twice-weekly s.c.) was 59% and the anti-coagulant properties (coagulation) was “mild anti-coagulant properties”.
